Results as given in patent US12649733B2, “3,6-diamino-pyridazin-3-yl derivatives, pharmaceutical compositions containing them and their uses as pro-apoptotic agents” (LES LABORATOIRES SERVIER, priority 2019, dated 2026).

Columns and labels:
[1] = target: T1, BCLXL (Homo sapiens, UniProt Q07817, V10N/V9A); assay: AlphaLISA assay (BIM peptide displacement); type: binding; conditions: 20 pM protein, 1 nM peptide
Summary of the method: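 Competitive displacement of fluorescein-labelled BIM peptide (1 nM) from biotinylated GST-BCL-XL(2-209) (20 pM) in 10 mM HEPES, 150 mM NaCl, 0.05% Tween 20, pH 7.4, 4% DMSO; 11-point dilutions. Overnight at 23° C with acceptor beads, then donor beads 2 h; Alpha signal at 615 nm.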

[2] = target: T2, Bcl-xL protein (Homo sapiens, UniProt Q07817, N197C); assay: Fluorescence quenching assay (PUMA peptide displacement); type: binding; conditions: 1 nM protein, 400 nM peptide, 2 hours at 23° C.; KI determined from IC50
T2 construct: (2-197)[N197C]; His-His (two His8 stretches joined by a Gly/Ala/Ser/Thr linker)
Summary of the method: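 Compounds were tested as an 11-point series in pH 7.4 HEPES/NaCl/Tween buffer with 5% DMSO, 2 h at 23 °C. Cy5-tagged Bcl-xL(2-197, N197C) at 1 nM and quencher-tagged PUMA peptide at 400 nM were used. Competitive binders restore fluorescence (620/680 nm), and IC50 values were converted to KI.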

[3] = test system: MOLT-4 cells; assay: MOLT-4 cell viability, MTT assay; type: cell-based; conditions: Homo sapiens, MOLT-4, 48 h, 48 h exposure
Summary of the method: (§1)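 Viability read by MTT reduction (OD 540 nm after overnight SDS/HCl lysis) after 48 h compound treatment of cells in RPMI 1640/10% FBS. Triplicates at nine concentrations, 3.16-fold apart; four-parameter curve fitting yields IC50.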

[4] = test system: H146 cells; assay: H146 cell viability, MTT assay; type: cell-based; conditions: Homo sapiens, NCI-H146, 48 h, 48 h exposure
Summary of the method: as §1

[5] = target: T1, BCLXL; assay: Fluorescence polarisation assay (PUMA-based probe displacement); type: binding; note: 20 nM protein, 10 nM fluorescent probe

T1 sequence (Q07817 with tags, fused parts or gaps V9A/V10N): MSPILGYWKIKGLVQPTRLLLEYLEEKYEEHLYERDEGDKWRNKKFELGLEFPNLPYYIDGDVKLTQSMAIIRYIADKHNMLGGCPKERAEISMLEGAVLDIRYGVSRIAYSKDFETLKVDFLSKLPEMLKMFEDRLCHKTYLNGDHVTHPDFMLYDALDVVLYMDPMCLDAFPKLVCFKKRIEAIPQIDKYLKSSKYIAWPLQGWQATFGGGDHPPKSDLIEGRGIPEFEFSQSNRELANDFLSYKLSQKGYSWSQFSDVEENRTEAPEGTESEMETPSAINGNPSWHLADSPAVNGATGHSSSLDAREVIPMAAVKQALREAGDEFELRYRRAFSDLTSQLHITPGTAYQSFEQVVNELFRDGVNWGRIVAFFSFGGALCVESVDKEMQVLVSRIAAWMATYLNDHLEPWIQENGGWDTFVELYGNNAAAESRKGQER
T2 sequence (Q07817 2-197 N197C): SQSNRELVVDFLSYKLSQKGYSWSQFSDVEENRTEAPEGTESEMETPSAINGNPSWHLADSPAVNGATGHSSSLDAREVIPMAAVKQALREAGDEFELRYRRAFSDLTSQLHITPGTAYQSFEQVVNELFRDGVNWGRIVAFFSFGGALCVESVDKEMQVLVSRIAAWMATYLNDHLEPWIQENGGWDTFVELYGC

SMILES | IC50 [1] [nM] | Ki [2] [nM] | IC50 [3] [nM] | IC50 [4] [nM] | Ki [5] [nM]
CNCC#Cc1ccc(OCCCc2sc(N(CCC(O)COC)c3cc(C)c(Nc4nc5ccccc5s4)nn3)nc2C(=O)O)c(F)c1 (centres unmarked) [Example 109, 2-[[6-(1,3-Benzothiazol-2-ylamino)-5-methyl-pyridazin-3-yl]-(3-hydroxy-4-methoxy-butyl)amino]-5-[3-[2-fluoro-4-[3-(methylamino)prop-1-ynyl]phenoxy]propyl]thiazole-4-carboxylic acid] | 0.011 | 0.0011 | 19.8 | 6.38 | < 1
CNCCN(C)CC(O)CCCN(c1cc(C)c(Nc2nc3ccccc3s2)nn1)c1nc(C(=O)O)c(CCCOc2ccc(C#CCN(C)C)cc2F)s1 (centres unmarked) [Example 169, 2-[[6-(1,3-Benzothiazol-2-ylamino)-5-methyl-pyridazin-3-yl]-[4-hydroxy-5-[methyl-[2-(methylamino)ethyl]amino]pentyl]amino]-5-[3-[4-[3-(dimethylamino)prop-1-ynyl]-2-fluoro-phenoxy]propyl]thiazole-4-carboxylic acid] | 0.0099 | 0.0044 | 106 | 73.1 | < 1
Cc1cc(N(CCCC(O)CN2CCC(N)CC2)c2nc(C(=O)O)c(CCCOc3ccc(C#CCN(C)C)cc3F)s2)nnc1Nc1nc2ccccc2s1 (centres unmarked) [Example 171, 2-[[5-(4-Amino-1-piperidyl)-4-hydroxy-pentyl]-[6-(1,3-benzothiazol-2-ylamino)-5-methyl-pyridazin-3-yl]amino]-5-[3-[4-[3-(dimethylamino)prop-1-ynyl]-2-fluoro-phenoxy]propyl]thiazole-4-carboxylic acid] | 0.013 | 0.0035 | 411 | 110 | < 1
CNCC#Cc1ccc(OCCCc2sc(N(CC(CO)OC)c3cc(C)c(Nc4nc5ccccc5s4)nn3)nc2C(=O)O)c(F)c1 (centres unmarked) [Example 118, 2-[[6-(1,3-Benzothiazol-2-ylamino)-5-methyl-pyridazin-3-yl]-(3-hydroxy-2-methoxy-propyl)amino]-5-[3-[2-fluoro-4-[3-(methylamino)prop-1-ynyl]phenoxy]propyl]thiazole-4-carboxylic acid] | 0.018 | 0.033 | 96 | 32.6 | –
Cc1cc(N(CCCCO)c2nc(C(=O)O)c(CCCOc3ccc(C#CCN(CCCS(=O)(=O)O)CCCS(=O)(=O)O)cc3F)s2)nnc1Nc1nc2ccccc2s1 [Example 147, 2-({6-[(1,3-Benzothiazol-2-yl)amino]-5-methylpyridazin-3-yl}(4-hydroxybutyl)amino)-5-[3-(4-{3-[bis(3-sulfopropyl)amino]prop-1-yn-1-yl}-2-fluorophenoxy)propyl]-1,3-thiazole-4-carboxylic acid] | 0.0071 | 0.0097 | – | – | –
CNCC#Cc1ccc(OCCCc2sc(N(CC(O)CO)c3cc(C)c(Nc4nc5ccccc5s4)nn3)nc2C(=O)O)c(F)c1 (centres unmarked) [Example 117, 2-[[6-(1,3-Benzothiazol-2-ylamino)-5-methyl-pyridazin-3-yl]-(2,3-dihydroxypropyl)amino]-5-[3-[2-fluoro-4-[3-(methylamino)prop-1-ynyl]phenoxy]propyl]thiazole-4-carboxylic acid] | 0.0099 | 0.0066 | 486 | 49.6 | –
Cc1cc(N(CCCC(O)CN(C)CCN(C)C)c2nc(C(=O)O)c(CCCOc3ccc(C#CCN(C)C)cc3F)s2)nnc1Nc1nc2ccccc2s1 (centres unmarked) [Example 124, 2-[[6-(1,3-Benzothiazol-2-ylamino)-5-methyl-pyridazin-3-yl]-[5-[2-(dimethylamino)ethyl-methyl-amino]-4-hydroxy-pentyl]amino]-5-[3-[4-[3-(dimethylamino)prop-1-ynyl]-2-fluoro-phenoxy]propyl]thiazole-4-carboxylic acid] | 0.0076 | 0.0017 | 19.2 | 50.6 | < 1
Cc1cc(N(CCCCNCCN2CCN(C)CC2)c2nc(C(=O)O)c(CCCOc3ccc(C#CCN(C)C)cc3F)s2)nnc1Nc1nc2ccccc2s1 [Example 168, 2-[[6-(1,3-Benzothiazol-2-ylamino)-5-methyl-pyridazin-3-yl]-[4-[2-(4-methylpiperazin-1-yl)ethylamino]butyl]amino]-5-[3-[4-[3-(dimethylamino)prop-1-ynyl]-2-fluoro-phenoxy]propyl]thiazole-4-carboxylic acid] | 0.012 | 0.0026 | 178 | – | < 1
CNCC#Cc1ccc(OCCCc2sc(N(CCCCO)c3cc(C)c(Nc4nc5ccccc5s4)nn3)nc2C(=O)O)c(F)c1 [Example 114, 2-({6-[(1,3-Benzothiazol-2-yl)amino]-5-methylpyridazin-3-yl}(4-hydroxybutyl)amino)-5-(3-{2-fluoro-4-[3-(methylamino)prop-1-yn-1-yl]phenoxy}propyl)-1,3-thiazole-4-carboxylic acid] | 0.053 | 0.011 | 3.81 | 1.58 | –
Cc1cc(N(CCCC(O)CNCCN2CCCCC2)c2nc(C(=O)O)c(CCCOc3ccc(C#CCN(C)C)cc3F)s2)nnc1Nc1nc2ccccc2s1 (centres unmarked) [Example 173, 2-[[6-(1,3-Benzothiazol-2-ylamino)-5-methyl-pyridazin-3-yl]-[4-hydroxy-5-[2-(1-piperidyl)ethylamino]pentyl]amino]-5-[3-[4-[3-(dimethylamino)prop-1-ynyl]-2-fluoro-phenoxy]propyl]thiazole-4-carboxylic acid] | 0.0079 | 0.0033 | 127 | 208 | –
CNCC#Cc1ccc(OCCCc2sc(N(CCCCCO)c3cc(C)c(Nc4nc5ccccc5s4)nn3)nc2C(=O)O)c(F)c1 [Example 128] | 0.013 | 0.028 | 18.1 | 20.8 | –

Other lines, results leading:

IC50 [1] [nM] | Ki [2] [nM] | IC50 [3] [nM] | IC50 [4] [nM] | Ki [5] [nM] | SMILES
0.6 | 0.043 | 1660 | 12600 | – | CNCC#Cc1ccc(OC/C(C)=C/c2sc(N(C)c3cc(C)c(Nc4nc5ccccc5s4)nn3)nc2C(=O)O)c(F)c1 [Example 174, 2-({6-[(1,3-Benzothiazol-2-yl)amino]-5-methylpyridazin-3-yl}(methyl)amino)-5-[(1E)-3-{2-fluoro-4-[3-(methylamino)prop-1-yn-1-yl]phenoxy}-2-methylprop-1-en-1-yl]-1,3-thiazole-4-carboxylic acid]
0.013 | 0.0017 | 136 | 16.8 | < 1 | CNCC(O)CCCN(c1cc(C)c(Nc2nc3ccccc3s2)nn1)c1nc(C(=O)O)c(CCCOc2ccc(C#CCN(C)C)cc2F)s1 (centres unmarked) [Example 150, 2-[[6-(1,3-Benzothiazol-2-ylamino)-5-methyl-pyridazin-3-yl]-[4-hydroxy-5-(methylamino)pentyl]amino]-5-[3-[4-[3-(dimethylamino)prop-1-ynyl]-2-fluoro-phenoxy]propyl]thiazole-4-carboxylic acid]
0.0074 | 0.0044 | 0.462 | 2.84 | 1.2 | Cc1cc(N(C)c2nc(C(=O)O)c(CCCOc3ccc(C#CCN(C)C)cc3F)s2)nnc1Nc1nc2ccccc2s1 [Example 50, 2-[[6-(1,3-Benzothiazol-2-ylamino)-5-methyl-pyridazin-3-yl]-methyl-amino]-5-[3-[4-[3-(dimethylamino)prop-1-ynyl]-2-fluoro-phenoxy]propyl]thiazole-4-carboxylic acid]
0.0098 | 0.003 | 280 | 51.4 | – | Cc1cc(N(CC(O)CO)c2nc(C(=O)O)c(CCCOc3ccc(C#CCN(C)C)cc3F)s2)nnc1Nc1nc2ccccc2s1 (centres unmarked) [Example 122, 2-[[6-(1,3-Benzothiazol-2-ylamino)-5-methyl-pyridazin-3-yl]-(2,3-dihydroxypropyl)amino]-5-[3-[4-[3-(dimethylamino)prop-1-ynyl]-2-fluoro-phenoxy]propyl]thiazole-4-carboxylic acid]
0.017 | 0.0086 | 3.06 | 19.1 | – | Cc1cc(N(C)c2nc(C(=O)O)c(CC(C)COc3ccc(C#CCN(C)C)cc3F)s2)nnc1Nc1nc2ccccc2s1 (centres unmarked) [Example 116, 2-({6-[(1,3-Benzothiazol-2-yl)amino]-5-methylpyridazin-3-yl}(methyl)amino)-5-(3-{4-[3-(dimethylamino)prop-1-yn-1-yl]-2-fluorophenoxy}-2-methylpropyl)-1,3-thiazole-4-carboxylic acid]
0.014 | 0.0055 | – | – | < 1 | Cc1cc(N(CCCCCO)c2nc(C(=O)O)c(CCCOc3ccc(C#CCN(C)C)cc3F)s2)nnc1Nc1nc2ccccc2s1 [Example 141, 2-[[6-(1,3-Benzothiazol-2-ylamino)-5-methyl-pyridazin-3-yl]-(5-hydroxypentyl)amino]-5-[3-[4-[3-(dimethylamino)prop-1-ynyl]-2-fluoro-phenoxy]propyl]thiazole-4-carboxylic acid]
